# Assay results reported in PMC5218480 (PLoS ONE, 2017).
# Test system: MV-4-11 cells
# Assay: Gene expression microarray analysis (Affymetrix PrimeView) and GSEA
# Format: cell-based, human
# Parameters: RFU PODN (11730768_x_at) / Fold change /veh PODN (11730768_x_at) / RFU LINC00158 (11744669_a_at) / Fold change /veh LINC00158 (11744669_a_at) / RFU DUSP10 (11751237_a_at) / Fold change /veh DUSP10 (11751237_a_at) / RFU ID3 (11757404_x_at) / Fold change /veh ID3 (11757404_x_at) / RFU PLEKHG5 (11737974_s_at) / Fold change /veh PLEKHG5 (11737974_s_at) / RFU LRRC4B (11730491_at) / Fold change /veh LRRC4B (11730491_at) / RFU GIMAP4 (11747438_a_at) / Fold change /veh GIMAP4 (11747438_a_at) / RFU KRT8 (11758183_x_at) / Fold change /veh KRT8 (11758183_x_at) / RFU CNN1 (11734310_a_at) / Fold change /veh CNN1 (11734310_a_at) / RFU VPS37D (11726825_at) / Fold change /veh VPS37D (11726825_at) / RFU C10orf10 (11716522_x_at) / Fold change /veh C10orf10 (11716522_x_at) / RFU KIR2DL2 /// KIR2DL4 /// KIR2DL5A /// KIR2DL5B /// KIR2DS1 /// KIR2DS2 /// KIR2DS3 /// KIR2DS4 /// KIR3DL3 /// KIR3DL3 /// KIR3DS1 (11738374_at) / Fold change /veh KIR2DL2 /// KIR2DL4 /// KIR2DL5A /// KIR2DL5B /// KIR2DS1 /// KIR2DS2 /// KIR2DS3 /// KIR2DS4 /// KIR3DL3 /// KIR3DL3 /// KIR3DS1 (11738374_at) / RFU C1QL1 (11718748_at) / Fold change /veh C1QL1 (11718748_at) / RFU TMPRSS4 (11747572_a_at) / Fold change /veh TMPRSS4 (11747572_a_at) / RFU HAMP (11756126_x_at) / Fold change /veh HAMP (11756126_x_at) / RFU RNFT2 (11725882_a_at) / Fold change /veh RNFT2 (11725882_a_at) / RFU NR4A2 (11747474_a_at) / Fold change /veh NR4A2 (11747474_a_at) / RFU ABCC12 (11746883_a_at) / Fold change /veh ABCC12 (11746883_a_at) / RFU TMEM136 (11760407_x_at) / Fold change /veh TMEM136 (11760407_x_at) / RFU CLDN22 /// WWC2 (11732394_at) / Fold change /veh CLDN22 /// WWC2 (11732394_at) / RFU HLA-DPB1 (11760878_x_at) / Fold change /veh HLA-DPB1 (11760878_x_at) / RFU SPINT1 (11716480_a_at) / Fold change /veh SPINT1 (11716480_a_at) / RFU GAP43 (11754022_s_at) / Fold change /veh GAP43 (11754022_s_at) / RFU A4GNT (11735810_at) / Fold change /veh A4GNT (11735810_at) / RFU PRB3 (11715151_x_at) / Fold change /veh PRB3 (11715151_x_at) / RFU TUBB4B (11761932_at) / Fold change /veh TUBB4B (11761932_at) / RFU CAPN14 (11732068_a_at) / Fold change /veh CAPN14 (11732068_a_at) / RFU TMCC2 (11721928_a_at) / Fold change /veh TMCC2 (11721928_a_at) / RFU IRGQ (11745062_a_at) / Fold change /veh IRGQ (11745062_a_at) / RFU FAM174B (11720279_a_at) / Fold change /veh FAM174B (11720279_a_at) / RFU TMPRSS4 (11748680_a_at) / Fold change /veh TMPRSS4 (11748680_a_at) / RFU FAM212B (11763350_a_at) / Fold change /veh FAM212B (11763350_a_at) / RFU PLEKHG5 (11743358_a_at) / Fold change /veh PLEKHG5 (11743358_a_at) / RFU ZSCAN30 (11745921_a_at) / Fold change /veh ZSCAN30 (11745921_a_at) / RFU CMKLR1 (11741424_a_at) / Fold change /veh CMKLR1 (11741424_a_at) / RFU LOC101060620 /// MAPK8IP1 (11723275_at) / Fold change /veh LOC101060620 /// MAPK8IP1 (11723275_at) / RFU SPTSSB (11747773_x_at) / Fold change /veh SPTSSB (11747773_x_at) / RFU PRSS12 (11739890_at) / Fold change /veh PRSS12 (11739890_at) / RFU BIN1 (11741810_x_at) / Fold change /veh BIN1 (11741810_x_at) / RFU WNT11 (11732464_a_at) / Fold change /veh WNT11 (11732464_a_at) / RFU C10orf10 (11716521_a_at) / Fold change /veh C10orf10 (11716521_a_at) / RFU C5orf56 (11738089_at) / Fold change /veh C5orf56 (11738089_at) / RFU CYB561 (11721691_x_at) / Fold change /veh CYB561 (11721691_x_at) / RFU ANKRD19P (11752326_a_at) / Fold change /veh ANKRD19P (11752326_a_at) / RFU OR2T12 /// OR2T33 /// OR2T8 (11738714_s_at) / Fold change /veh OR2T12 /// OR2T33 /// OR2T8 (11738714_s_at) / RFU VCAN (11748164_a_at) / Fold change /veh VCAN (11748164_a_at) / RFU JSRP1 (11732532_at) / Fold change /veh JSRP1 (11732532_at) / RFU KRTAP10-11 (11738290_x_at) / Fold change /veh KRTAP10-11 (11738290_x_at) / RFU MYO3A (11730013_a_at) / Fold change /veh MYO3A (11730013_a_at) / RFU EBF3 (11725865_a_at) / Fold change /veh EBF3 (11725865_a_at) / RFU CAMK2N1 (11719241_x_at) / Fold change /veh CAMK2N1 (11719241_x_at) / RFU C5orf56 (11738088_a_at) / Fold change /veh C5orf56 (11738088_a_at) / RFU OLFML3 (11715873_a_at) / Fold change /veh OLFML3 (11715873_a_at) / RFU LOC100653217 /// NTM (11731650_a_at) / Fold change /veh LOC100653217 /// NTM (11731650_a_at) / RFU MAPK11 (11762145_a_at) / Fold change /veh MAPK11 (11762145_a_at) / RFU FIZ1 (11724087_x_at) / Fold change /veh FIZ1 (11724087_x_at) / RFU OASL (11726364_x_at) / Fold change /veh OASL (11726364_x_at) / RFU SOX15 (11748057_x_at) / Fold change /veh SOX15 (11748057_x_at) / RFU CD79A (11719716_a_at) / Fold change /veh CD79A (11719716_a_at) / RFU HIST1H1D (11736915_at) / Fold change /veh HIST1H1D (11736915_at) / RFU CASKIN2 (11723855_a_at) / Fold change /veh CASKIN2 (11723855_a_at) / RFU LOC730098 (11760151_x_at) / Fold change /veh LOC730098 (11760151_x_at) / RFU OR4N2 (11742367_at) / Fold change /veh OR4N2 (11742367_at) / RFU PRRT2 (11749266_a_at) / Fold change /veh PRRT2 (11749266_a_at) / RFU SNX32 (11753110_a_at) / Fold change /veh SNX32 (11753110_a_at) / RFU CDHR5 (11726645_a_at) / Fold change /veh CDHR5 (11726645_a_at) / RFU RCAN1 (11760418_a_at) / Fold change /veh RCAN1 (11760418_a_at) / RFU FAM167A (11723789_a_at) / Fold change /veh FAM167A (11723789_a_at) / RFU FAM26E (11764081_at) / Fold change /veh FAM26E (11764081_at) / RFU ISYNA1 (11749810_s_at) / Fold change /veh ISYNA1 (11749810_s_at) / RFU ACY1 (11761880_at) / Fold change /veh ACY1 (11761880_at) / RFU 11764098_at / Fold change /veh 11764098_at / RFU SAMD14 (11745864_x_at) / Fold change /veh SAMD14 (11745864_x_at) / RFU NPB (11741838_a_at) / Fold change /veh NPB (11741838_a_at) / RFU TMPRSS6 (11731388_a_at) / Fold change /veh TMPRSS6 (11731388_a_at) / RFU KRTAP10-2 (11738614_at) / Fold change /veh KRTAP10-2 (11738614_at) / RFU ARHGAP8 /// PRR5-ARHGAP8 (11727945_x_at) / Fold change /veh ARHGAP8 /// PRR5-ARHGAP8 (11727945_x_at) / RFU KRTAP5-7 /// NADSYN1 (11734609_at) / Fold change /veh KRTAP5-7 /// NADSYN1 (11734609_at) / RFU RASL12 (11751679_a_at) / Fold change /veh RASL12 (11751679_a_at) / RFU CDKN2B (11736163_a_at) / Fold change /veh CDKN2B (11736163_a_at) / RFU PRF1 (11729649_at) / Fold change /veh PRF1 (11729649_at) / RFU, ZNF638 /// ZNF638-IT1 / Fold change vs veh, ZNF638 /// ZNF638-IT1 / RFU, PANK3 / Fold change vs veh, PANK3 / RFU, SH3YL1 / Fold change vs veh, SH3YL1 / RFU, ZEB2 / Fold change vs veh, ZEB2 / RFU, NRIP1 / Fold change vs veh, NRIP1 / RFU, PTTG1IP / Fold change vs veh, PTTG1IP / RFU, CAPN2 / Fold change vs veh, CAPN2 / RFU, MED14 / Fold change vs veh, MED14 / RFU, SNORA58 / Fold change vs veh, SNORA58 / RFU, C1orf63 / Fold change vs veh, C1orf63 / RFU, LRRFIP1 / Fold change vs veh, LRRFIP1 / RFU, NDUFAF7 / Fold change vs veh, NDUFAF7 / RFU, SLC12A2 / Fold change vs veh, SLC12A2 / RFU, IBTK / Fold change vs veh, IBTK / RFU, ESF1 / Fold change vs veh, ESF1 / Fold change vs veh, TMEM50B / RFU, TAOK1 / Fold change vs veh, TAOK1 / RFU, ACBD3 / Fold change vs veh, ACBD3 / RFU, TMA16 / Fold change vs veh, TMA16 / RFU, RWDD3 / Fold change vs veh, RWDD3 / RFU, BCAT1 / Fold change vs veh, BCAT1 / RFU, EDEM3 / Fold change vs veh, EDEM3 / RFU, TMEM33 / Fold change vs veh, TMEM33 / RFU, WDR75 / Fold change vs veh, WDR75 / RFU, AHCTF1 / Fold change vs veh, AHCTF1 / RFU, TFRC / Fold change vs veh, TFRC / RFU, ZDHHC17 / Fold change vs veh, ZDHHC17 / RFU, NOM1 / Fold change vs veh, NOM1 / RFU, ARL8B / Fold change vs veh, ARL8B / RFU, ZBTB11 / Fold change vs veh, ZBTB11 / RFU, TAMM41 / Fold change vs veh, TAMM41 / RFU, KIAA1704 /// LOC100996395 / Fold change vs veh, KIAA1704 /// LOC100996395 / RFU, ING1 / Fold change vs veh, ING1 / RFU, TRMT61B / Fold change vs veh, TRMT61B / RFU, FUBP3 / Fold change vs veh, FUBP3 / RFU, TP53 / Fold change vs veh, TP53 / RFU, TNKS2 / Fold change vs veh, TNKS2 / RFU, ZFP14 / Fold change vs veh, ZFP14 / RFU, ACTR2 / Fold change vs veh, ACTR2 / RFU, PPP3R1 / Fold change vs veh, PPP3R1 / RFU, PIK3R1 / Fold change vs veh, PIK3R1 / RFU, HNRNPA1 / Fold change vs veh, HNRNPA1 / RFU, RNF170 / Fold change vs veh, RNF170 / RFU, ZNF28 / Fold change vs veh, ZNF28 / RFU, RNGTT / Fold change vs veh, RNGTT / RFU, OGT / Fold change vs veh, OGT / RFU, BRD1 / Fold change vs veh, BRD1 / RFU, MARS / Fold change vs veh, MARS / RFU, ZNF655 / Fold change vs veh, ZNF655 / RFU, FAHD1 / Fold change vs veh, FAHD1 / RFU, BDP1 / Fold change vs veh, BDP1 / RFU, LRRCC1 / Fold change vs veh, LRRCC1 / RFU, ARID1A / Fold change vs veh, ARID1A / RFU, ZNF146 / Fold change vs veh, ZNF146 / RFU, ZNF330 / Fold change vs veh, ZNF330 / RFU, GPN3 / Fold change vs veh, GPN3 / RFU, C9orf123 / Fold change vs veh, C9orf123 / RFU, N4BP2L2 / Fold change vs veh, N4BP2L2 / RFU, ARFIP1 / Fold change vs veh, ARFIP1 / RFU, FAM179B / Fold change vs veh, FAM179B / RFU, BCL10 / Fold change vs veh, BCL10 / RFU, UHRF1BP1L / Fold change vs veh, UHRF1BP1L / RFU, BET1 / Fold change vs veh, BET1 / RFU, CNOT2 / Fold change vs veh, CNOT2 / RFU, ZNF268 / Fold change vs veh, ZNF268 / Fold change vs veh, ZNF507 / RFU, DGCR2 / Fold change vs veh, DGCR2 / RFU, WDSUB1 / Fold change vs veh, WDSUB1 / Fold change vs veh, HSP90B1 /// MIR3652 / RFU, ADSS / Fold change vs veh, ADSS / RFU, GK / Fold change vs veh, GK / RFU, ZNF148 / Fold change vs veh, ZNF148 / RFU, TAF9 / Fold change vs veh, TAF9 / RFU, SLC1A5 / Fold change vs veh, SLC1A5 / RFU, SLMO2 / Fold change vs veh, SLMO2 / RFU, ABCC4 / Fold change vs veh, ABCC4 / RFU, LOC101060439 /// RAP1B / Fold change vs veh, LOC101060439 /// RAP1B / RFU, RFX7 / Fold change vs veh, RFX7 / RFU, GTPBP10 / Fold change vs veh, GTPBP10 / RFU, CNEP1R1 / Fold change vs veh, CNEP1R1 / RFU, BIVM-ERCC5 /// ERCC5 / Fold change vs veh, BIVM-ERCC5 /// ERCC5 / RFU, ILF3 / Fold change vs veh, ILF3 / RFU 11762660_at / Fold change /veh 11762660_at / RFU VCAN (11757783_s_at) / Fold change /veh VCAN (11757783_s_at) / RFU DDX43 (11728927_at) / Fold change /veh DDX43 (11728927_at) / RFU KRT8 (11758188_x_at) / Fold change /veh KRT8 (11758188_x_at) / RFU NKD1 (11759106_at) / Fold change /veh NKD1 (11759106_at) / RFU SRD5A1 (11742802_a_at) / Fold change /veh SRD5A1 (11742802_a_at) / RFU TPSAB1 /// TPSB2 (11721975_s_at) / Fold change /veh TPSAB1 /// TPSB2 (11721975_s_at) / RFU GSTM3 (11746129_a_at) / Fold change /veh GSTM3 (11746129_a_at) / RFU IL23R (11737362_x_at) / Fold change /veh IL23R (11737362_x_at) / RFU TMEM51 (11727254_a_at) / Fold change /veh TMEM51 (11727254_a_at) / RFU PIWIL2 (11732686_x_at) / Fold change /veh PIWIL2 (11732686_x_at) / RFU ORM1 (11744905_x_at) / Fold change /veh ORM1 (11744905_x_at) / RFU CCDC152 (11743942_at) / Fold change /veh CCDC152 (11743942_at) / RFU ECM1 (11717891_a_at) / Fold change /veh ECM1 (11717891_a_at) / RFU IL23R (11748794_a_at) / Fold change /veh IL23R (11748794_a_at) / RFU TNFAIP8L3 (11732012_x_at) / Fold change /veh TNFAIP8L3 (11732012_x_at) / RFU MBOAT4 (11741988_at) / Fold change /veh MBOAT4 (11741988_at) / RFU 11764193_at / Fold change /veh 11764193_at / RFU TMEM53 (11763286_at) / Fold change /veh TMEM53 (11763286_at) / RFU MAGEB2 (11727129_at) / Fold change /veh MAGEB2 (11727129_at) / RFU TMEM200A (11744735_a_at) / Fold change /veh TMEM200A (11744735_a_at) / RFU CCDC152 (11751479_a_at) / Fold change /veh CCDC152 (11751479_a_at) / RFU FAM211A (11726209_a_at) / Fold change /veh FAM211A (11726209_a_at) / RFU RGS16 (11746705_a_at) / Fold change /veh RGS16 (11746705_a_at) / RFU VCAN (11755009_s_at) / Fold change /veh VCAN (11755009_s_at) / RFU RHOB (11743442_s_at) / Fold change /veh RHOB (11743442_s_at) / RFU RGS16 (11720943_a_at) / Fold change /veh RGS16 (11720943_a_at) / RFU RGS16 (11720944_at) / Fold change /veh RGS16 (11720944_at) / RFU, VPS4B / Fold change vs veh, VPS4B / RFU, CREB1 / Fold change vs veh, CREB1 / RFU, DNAJC13 / Fold change vs veh, DNAJC13 / RFU, GNAQ / Fold change vs veh, GNAQ / RFU, CDK5R1 / Fold change vs veh, CDK5R1 / RFU, ZRANB3 / Fold change vs veh, ZRANB3 / RFU, CUL4A / Fold change vs veh, CUL4A / RFU, CCNY / Fold change vs veh, CCNY / RFU, UFL1 / Fold change vs veh, UFL1 / RFU, COG3 / Fold change vs veh, COG3 / RFU, DIAPH2 / Fold change vs veh, DIAPH2 / RFU, SKA2 / Fold change vs veh, SKA2 / RFU, AFF3 / Fold change vs veh, AFF3 / RFU, LMF1 / Fold change vs veh, LMF1 / RFU, IPO11 / Fold change vs veh, IPO11 / RFU, DFFB / Fold change vs veh, DFFB / RFU, FOXP1 / Fold change vs veh, FOXP1 / RFU, CARD8 / Fold change vs veh, CARD8 / RFU, STRN3 / Fold change vs veh, STRN3 / RFU, ADK / Fold change vs veh, ADK / RFU, RASSF2 / Fold change vs veh, RASSF2 / RFU, WIPF1 / Fold change vs veh, WIPF1 / RFU, LARP1B / Fold change vs veh, LARP1B / RFU, RASA1 / Fold change vs veh, RASA1 / RFU, RB1 / Fold change vs veh, RB1 / RFU, PPFIA1 / Fold change vs veh, PPFIA1 / RFU, MAT2A / Fold change vs veh, MAT2A / RFU, CCT5 / Fold change vs veh, CCT5 / RFU, WDR92 / Fold change vs veh, WDR92 / RFU, CUX1 / Fold change vs veh, CUX1 / RFU, TTC7A / Fold change vs veh, TTC7A / RFU, TMEM135 / Fold change vs veh, TMEM135 / RFU, DEPTOR / Fold change vs veh, DEPTOR / RFU, CPM / Fold change vs veh, CPM / RFU, DNAJB6 / Fold change vs veh, DNAJB6 / RFU, CACNA2D3 / Fold change vs veh, CACNA2D3 / RFU, DTX4 / Fold change vs veh, DTX4 / RFU, TFCP2 / Fold change vs veh, TFCP2 / RFU, GMCL1 /// GMCL1P1 / Fold change vs veh, GMCL1 /// GMCL1P1 / RFU, AEBP2 / Fold change vs veh, AEBP2 / RFU, SNHG1 /// SNORD22 /// SNORD25 /// SNORD26 /// SNORD27 /// SNORD28 /// SNORD29 /// SNORD31 / Fold change vs veh, SNHG1 /// SNORD22 /// SNORD25 /// SNORD26 /// SNORD27 /// SNORD28 /// SNORD29 /// SNORD31 / Fold change (Aza/veh), C12orf56 (ProbeSet 11735607_a_at) / Fold change (ACY-1035/veh), C12orf56 (ProbeSet 11735607_a_at) / Fold change (Aza/veh), FGFR1OP (ProbeSet 11751329_s_at) / Fold change (ACY-1035/veh), FGFR1OP (ProbeSet 11751329_s_at) / Fold change (Aza/veh), VPS36 (ProbeSet 11739960_a_at) / Fold change (ACY-1035/veh), VPS36 (ProbeSet 11739960_a_at) / RFU SYPL1 (11715823_x_at) / Fold change /veh SYPL1 (11715823_x_at) / RFU IGFBP7 (11715501_s_at) / Fold change /veh IGFBP7 (11715501_s_at) / RFU REEP3 (11722064_at) / Fold change /veh REEP3 (11722064_at) / RFU IGLL1 (11728026_x_at) / Fold change /veh IGLL1 (11728026_x_at): dose or concentration left out as unconfirmed
# Details: MV-4-11 cells, 48 hours
structure (smiles),measurement,value
Nc1ccc(-c2cccs2)cc1NC(=O)c1ccc2c(c1)cc(C1CC1)n2CCN1CCOCC1 [ACY-1035],Fold change /veh SRD5A1 (11742802_a_at),1.16
